Experimental findings from US7390820B2, “Substituted quinolinone derivatives and methods of use” (Amgen Inc., priority 2003, dated 2008) are described below.

Each structure is given as a SMILES string. A value given as a limit tells only on which side of the number the result lay.

In the assay the test system is Human Umbilical Vein Endothelial cells. In words: HUVEC proliferation assay (VEGF-stimulated). It counts as cell-based. Conditions: 72 h, CyQuant, read-out: inhibition of VEGF-stimulated HUVEC proliferation. Here is the method: Human Umbilical Vein Endothelial cells are purchased from Clonetics, Inc., as cryopreserved cells harvested from a pool of donors. These cells, at passage 1, are thawed and expanded in EBM-2 complete medium, until passage 2 or 3. The cells are trypsinized, washed in DMEM+10% FBS+antibiotics, and spun at 1000 rpm for 10 min. Prior to centrifugation of the cells, a small amount is collected for a cell count. After centrifugation, the medium is discarded, and the cells are resuspended in the appropriate volume of DMEM+10% FBS+antibiotics to achieve a concentration of 3×10^5 cells/mL. Another cell count is performed to confirm the cell concentration. The cells are diluted to 3×10^4 cells/mL in DMEM+10% FBS+antibiotics, and 100 μL of cells are added to a 96-well plate. The cells are incubated at 37° C. for 22 h.
Prior to the completion of the incubation period, compound dilutions are prepared. Five-point, five-fold serial dilutions are prepared in DMSO, at concentrations 400-fold greater than the final concentrations desired. 2.5 μL of each compound dilution are diluted further in a total of 1 mL DMEM+10% FBS+antibiotics (400× dilution). Medium containing 0.25% DMSO is also prepared for the 0 μM compound sample. At the 22 h timepoint, the medium is removed from the cells, and 100 μL of each compound dilution is added. The cells are incubated at 37° C. for 2-3 h.
During the compound pre-incubation period, the growth factors are diluted to the appropriate concentrations. Solutions of DMEM+10% FBS+antibiotics, containing either VEGF or bFGF at the following concentrations: 50, 10, 2, 0.4, 0.08, and 0 ng/mL are prepared. […]
At the completion of the 72 h incubation period, the medium is removed, and the cells are washed twice with PBS. […] The cells are thawed and analyzed using the CyQuant fluorescent dye (Molecular Probes C-7026), following the manufacturer's recommendations. The plates are read on a Victor/Wallac 1420 workstation at 485 nm/530 nm (excitation/emission). Raw data are collected and analyzed using a 4-parameter fit equation in XLFit. IC50 values are then determined.
For the compound `CC(C)(C)c1ccc(-n2ncc3cccc(NCc4ccncc4)c3c2=O)cc1` [Example 1, 2-(4-(1,1-Dimethylethyl)phenyl)-8-((4-pyridinylmethyl)amino)-1(2H)-phthalazinone], the IC50 is under 500 nM.

Take `CC(C)(C)c1ccc(-n2ncc3cccc(NCc4c[nH]c5ncccc45)c3c2=O)cc1` [Example 2, 2-(4-(1,1-Dimethylethyl)phenyl)-8-((1H-pyrrolo[2,3-b]pyridin-3-ylmethyl)amino)-1(2H)-phthalazinone]: the IC50 is under 500 nM. The value for `CC(C)(C)c1ccc(N2CCc3cccc(NCc4ccncc4)c3C2=O)cc1` [Example 3, 2-(4-(1,1-Dimethylethyl)phenyl)-8-((4-pyridinylmethyl)amino)-3,4-dihydro-1(2H)-isoquinolinone] was under 500 nM.
